Measurements taken from patent EP0903346A1, “SYDNONE IMINE DERIVATIVES” (Chugai Seiyaku Kabushiki Kaisha, priority 1995, dated 1997).

What was measured:
isolated rat aorta = assay: Test with the use of isolated rat aorta (relaxation of potassium chloride contraction); conditions: relaxation of continuous contraction due to 30 mM potassium chloride, thoracic aorta of male Sprague Dawley rats, read-out: Rat aorta IC50
Protocol: The thoracic aorta was taken out from male Sprague Dawley rats weighing 450 to 600 g and cut into circular samples of 2 mm in width. […] The contraction reactions of the samples were isometrically recorded with FD pick-up. After 1 to 1.5 hours of equilibration, 30 mM potassium chloride was added to contract the tissue. […] As the test compounds, the invention compounds obtained in the above Examples were employed.

anesthetized rat = assay: Blood pressure-lowering effect in anesthetized rat; format: in vivo; conditions: duodenal administration; for Blood pressure-lowering effect ED30: dose causing a decrease in the blood pressure by 30%; for Blood pressure-lowering effect Half duration: half duration at ED30 (recovery to 50% of the maximum decrease in blood pressure)
Protocol: Male Sprague Dawley rats weighing 280 to 450 g were anesthetized with sodium pentobarbital (50 mg/kg, i.p.) and fixed in the supine position. A canula was inserted into the trachea of each animal. Then the blood pressure of the animal was measured (AP-621G, Nippon Kohden Corp.) through a polyethylene tube (PE50) inserted into the right femoral artery via a pressure transducer (Life Kit DTS, DX-300, Nippon Kohden Corp.) and the heart rate was determined from the pulse wave (AT-610G, Nippon Kohden Corp.). A canula (PE10) for injecting the maintenance anesthetic drug (sodium pentobarbital 20 mg/kg/h) was inserted into the right femoral vein. The abdominal region was medianly sectioned and a canula (PE50 connected to a injection needle 23G) for duodenal drug administration was inserted thereinto and fixed with Aronalpha for surgical use. After 60-90 minutes of recovery period, the drug was administered into duodenum. After administering the drug, the blood pressure was measured until the average blood pressure returned to the level before the administration.
As the indication of the blood pressure-lowering effect of each drug, the dose causing a decrease in the blood pressure by 30%, based on the level before the administration, was calculated from the dose-response curve and employed as the 30% effective dose (ED30). Moreover, the time required for the recovery to the level corresponding to 50% of the maximum decrease in the blood pressure (half duration) was measured at each dose. Then the half duration at the above-mentioned ED30 was calculated and employed as the indication of the lasting time of the blood pressure-lowering effect (half duration at ED30).
As the test compounds, use was made of the compounds of the present invention obtained in the above Examples. Table C summarizes the results. Table C

| Compound | IC50 (isolated rat aorta) | Blood pressure-lowering effect ED30 (anesthetized rat) | Blood pressure-lowering effect Half duration (anesthetized rat) |
| --- | --- | --- | --- |
| CC(=O)SCC(=O)[N-]c1c[n+](N2CCN(C(=O)CSC(C)=O)CC2)no1 [Example 38-C, N-((Acetylthio)acetyl)-3-(4-((acetylthio)acetyl)piperazin-1-yl)sydnonimine] | 230 nM |  |  |
| COc1ccc(CN2CCN([n+]3cc([N-]C(=O)CSC(=O)c4ccccc4)on3)CC2)c(OC)c1OC [Example 51, N-((Benzoylthio)acetyl)-3-(4-(2,3,4-trimethoxyphenylmethyl)piperazin-1-yl)sydnonimine] | 300 nM |  |  |
| CC(=O)SC[C@@H](C)C(=O)[N-]c1c[n+](N2CCN(C)CC2)no1 [Example 78, N-((S)-3-(Acetylthio)isobutyryl)-3-(4-methylpiperazin-1-yl)sydnonimine] |  | 1.0 mg/kg | 40 min |
| CC(=O)SC[C@@H](C)C(=O)[N-]c1c[n+](N2CCN(C(C)C)CC2)no1 [Example 80, N-((S)-3-(Acetylthio)isobutyryl)-3-(4-isopropylpiperazin-1-yl)sydnonimine] |  | 0.6 mg/kg | 49 min |
| CC(=O)N[C@@H](CSC(C)=O)C(=O)[N-]c1c[n+](N2CCN(C)CC2)no1 [Example 181, N-((R)-2-Acetylamino-3-(acetylthio)propionyl)-3-(4-methylpiperazin-1-yl)sydnonimine] |  | 0.8 mg/kg | 60 min |
| CC(=O)SCCC(=O)[N-]c1c[n+](N2CCN(Cc3ccccc3)CC2)no1 [Example 119, N-(3-(Acetylthio)propionyl)-3-(4-benzylpiperazin-1-yl)sydnonimine] |  | 1.2 mg/kg | 49 min |
| Cc1cccc(C)c1C(=O)SCC(=O)[N-]c1c[n+](N2CCN(C)CC2)no1 [Example 132, N-((2,6-Dimethylbenzoylthio)acetyl)-3-(4-methylpiperazin-1-yl)sydnonimine] |  | 0.7 mg/kg | 44 min |
| CCOC(=O)[N-]c1cn(N2CCOCC2)n[o+]1 [molsidomine, reference compound] |  | 0.3 mg/kg | 39 min |
| Cc1cccc(C)c1C(=O)SCCC(=O)[N-]c1c[n+](N2CCN(C)CC2)no1 [Example 141, N-(3-(2,6-Dimethylbenzoylthio)propionyl)-3-(4-methylpiperazin-1-yl)sydnonimine] |  | 0.5 mg/kg | 48 min |
| CN1CCN([n+]2cc([N-]C(=O)CCSc3cc(C(C)(C)C)c(O)c(C(C)(C)C)c3)on2)CC1 [Example 179, N-(3-(3,5-Di-t-butyl-4-hydroxyphenylthio)propionyl)-3-(4-methylpiperazin-1-yl)sydnonimine] |  | 0.9 mg/kg | 43 min |
| CC(C)N1CCN([n+]2cc([N-]C(=O)CCSC(=O)c3ccccc3)on2)CC1 [Example 129, N-(3-(Benzoylthio)propionyl)-3-(4-isopropylpiperazin-1-yl)sydnonimine] |  | 1.3 mg/kg | 42 min |
| CCN1CCN([n+]2cc([N-]C(=O)CCSC(=O)c3c(F)cccc3F)on2)CC1 [Example 146, N-(3-(2,6-Difluorobenzoylthio)propionyl)-3-(4-ethylpiperazin-1-yl)sydnonimine] |  | 0.6 mg/kg | 45 min |
| CCN1CCN([n+]2cc([N-]C(=O)CCSC(=O)C(C)(C)C)on2)CC1 [Example 155, N-(3-(Pivaloylthio)propionyl)-3-(4-ethylpiperazin-1-yl)sydnonimine] |  | 0.2 mg/kg | 46 min |
| CC(=O)N[C@@H](CSC(C)=O)C(=O)[N-]c1c[n+](N2CCN(C(C)C)CC2)no1 [Example 183, N-((R)-2-Acetylamino-3-(acetylthio)propionyl)-3-(4-isopropylpiperazin-1-yl)sydnonimine] |  | 1.0 mg/kg | 47 min |
| CCNC(=O)SCCC(=O)[N-]c1c[n+](N2CCN(CC)CC2)no1 [Example 163, N-(3-(Ethylcarbamoylthio)propionyl)-3-(4-ethylpiperazin-1-yl)sydnonimine] |  | 0.2 mg/kg | 44 min |
| CCN1CCN([n+]2cc([N-]C(=O)CSC(C)=O)on2)CC1 [Example 85, N-(Acetylthioacetyl)-3-(4-ethylpiperazin-1-yl)sydnonimine] |  | 0.3 mg/kg | 44 min |
| CC(C)N1CCN([n+]2cc([N-]C(=O)CCSC(=O)c3ccc(F)cc3)on2)CC1 [Example 137, N-(3-(4-Fluorobenzoylthio)propionyl)-3-(4-isopropylpiperazin-1-yl)sydnonimine] |  | 0.6 mg/kg | 46 min |
| CN1CCN([n+]2cc([N-]C(=O)CCCSC(=O)c3ccccc3)on2)CC1 [Example 174, N-(4-(Benzoylthio)butyryl)-3-(4-methylpiperazin-1-yl)sydnonimine] |  | 0.5 mg/kg | 43 min |
| C[C@H](CSC(=O)c1ccccc1)C(=O)[N-]c1c[n+](N2CCN(Cc3ccccc3)CC2)no1 [Example 18, N-((S)-3-(Benzoylthio)isobutyryl)-3-(4-benzylpiperazin-1-yl)sydnonimine] |  | 2.0 mg/kg | 62 min |
| CCN1CCN([n+]2cc([N-]C(=O)CCSC(C)=O)on2)CC1 [Example 122, N-(3-(Acetylthio)propionyl)-3-(4-ethylpiperazin-1-yl)sydnonimine] |  | 0.6 mg/kg | 48 min |
| CN1CCN([n+]2cc([N-]C(=O)CCSC(=O)Nc3ccccc3)on2)CC1 [Example 171, N-(3-(Phenylcarbamoylthio)propionyl)-3-(4-methylpiperazin-1-yl)sydnonimine] |  | 0.3 mg/kg | 45 min |
| 3-(4-Benzylpiperazin-1-yl)-N-((3,4,5-trimethoxyphenyl)acetyl)sydnonimine [Example 17] |  | 1.4 mg/kg | 21 min |
| C[C@H](CSC(=O)c1ccccc1)C(=O)[N-]c1c[n+](N2CCN(CC(F)(F)F)CC2)no1 [Example 70, N-((S)-3-(Benzoylthio)isobutyryl)-3-(4-(2,2,2-trifluoroethyl)piperazin-1-yl)sydnonimine] |  | 0.7 mg/kg | 41 min |
| C[C@H](CSC(=O)c1ccccc1)C(=O)[N-]c1c[n+](N2CCN(C3CCCC3)CC2)no1 [Example 72, N-((S)-3-(Benzoylthio)isobutyryl)-3-(4-cyclopentylpiperazin-1-yl)sydnonimine] |  | 1.3 mg/kg | 47 min |
| COc1cc(CC(=O)[N-]c2c[n+](N3CCN(C)CC3)no2)cc(OC)c1OC [Example 42, N-((3,4,5-Trimethoxyphenyl)acetyl)-3-(4-methylpiperazin-1-yl)sydnonimine] |  | 4.0 mg/kg | 60 min |
| CC(=O)N[C@@H](CSC(=O)c1ccc(F)cc1)C(=O)[N-]c1c[n+](N2CCN(C)CC2)no1 [Example 185, N-((R)-2-Acetylamino-3-(4-fluorobenzoylthio)propionyl)-3-(4-methylpiperazin-1-yl)sydnonimine] |  | 1.5 mg/kg | 53 min |
| Cc1c(C)c2c(c(C)c1O)CCC(C)(C(=O)SCC(=O)[N-]c1c[n+](N3CCN(C)CC3)no1)O2 (stereo not shown) [Example 191, N-((6-Hydroxy-2,5,7,8-tetramethylchroman-2-carbonylthio)acetyl)-3-(4-methylpiperazin-1-yl)sydnonimine] |  | 1.0 mg/kg | 58 min |
